Drawing on patent publication US20240199647A1, “ANTI-VIRAL COMPOUNDS” (Aligos Therapeutics, Inc., priority 2022, published 2024), this text covers CC50, IC50 and EC50 for 19 compounds.

pEC50, pIC50: −log10 of the molar value. Like-named read-outs stand apart in the source and are kept apart here. A value given as a limit tells only on which side of the number the result lay.

Series [1] in a line: in vitro. The settings on record: human.
Series [2] has as its target SARS-Cov-2 3CLpro (Severe acute respiratory syndrome coronavirus 2, UniProt P0DTD1). The series can be described thus: biochemical. The settings on record: Table A, class symbols, read-out: SARS-Cov-2 (IC50).
The subject of series [3] is human beta-coronavirus OC43. As to the kind of experiment: OC43 Coronavirus Assay in HeLa cells (antiviral, cytopathic effect, cell-titer-glo). The series is classed as cell-based. Particulars: Betacoronavirus 1, OC43, HeLa. In general terms: Damage to the host cells serves as the signal in cytopathic effect assays.
A short description of series [4]: Cytotoxicity in HeLa cells without addition of OC43 virus (in parallel). The settings on record: human, HeLa cells, without OC43 virus.
The test system of series [5] is SARS-CoV-2 B.1.1.7 lineage. The series can be described thus: microbe, parasite or virus in culture. The series is classed as cell-based.
Where [6] appears, read: Table B, OC43 coronavirus in HeLa cells, class symbols, read-out: EC50.
[7] abbreviates: Severe acute respiratory syndrome coronavirus 2, Table C, SARS-CoV-2 B.1.1.7 in A549-dual_ACE2_TMPRSS2 cells, class symbols, read-out: A549-dual_ACE2_TMPRSS2 (EC50).

In series [1], `CC(C)C[C@@H](C(=O)N1C[C@@]2(C[C@H]1C#N)Oc1cc(F)cc(F)c1NC2=O)N(C)C(=O)[C@H](C)NC(=O)C1(F)CC1` [Compound 71] returned a CC50 above 1 µM. For the same compound, the negative logarithm of the IC50 (pIC50) (as a rule, −log10 of the IC50, conventionally taken in molar units) in series [2] is above 7.70. Also, the pEC50 in series [3] (setting [6]) and in series [5] (setting [7]) was 6.00 to 7.00 in each case. The CC50 at 6 days in series [4] was above 10 µM.
In series [1], `CC(C)C[C@@H](C(=O)N1C[C@@]2(C[C@H]1C#N)N=C(c1ccccc1)NC2=O)N(C)C(=O)c1cc2c(F)cc(F)cc2[nH]1` [Example 6, N-[(2S)-1-[(5R,8S)-8-cyano-4-oxo-2-phenyl-1,3,7-triazaspiro[4.4]non-1-en-7-yl]-4-methyl-1-oxopentan-2-yl]-4,6-difluoro-N-methyl-1H-indole-2-carboxamide] displayed a CC50 above 1 µM. In series [2], the pIC50 is above 7.70. The negative-log EC50 (pEC50) in series [3] (setting [6]) and in series [5] (setting [7]) was 6.00 to 7.00 each time. In series [4], this compound returned a CC50 at 6 days above 10 µM.
In series [1], `CN(C(=O)[C@H](CC1CC1)n1cc(-c2ccccc2)nn1)[C@@H](CC1CC1)C(=O)N1C[C@@]2(C[C@H]1C#N)Oc1cc(F)cc(F)c1NC2=O` [Compound 114, (S)—N—((S)-1-((2R,5'S)-5′-cyano-5,7-difluoro-3-oxo-3,4-dihydrospiro[benzo[b][1,4]oxazine-2,3′-pyrrolidin]-1′-yl)-3-cyclopropyl-1-oxopropan-2-yl)-3-cyclopropyl-N-methyl-2-(4-phenyl-1H-1,2,3-triazol-1-yl)propenamide] yielded a CC50 above 1 µM. For the same compound, the pIC50 in series [2] is above 7.70. The negative logarithm of the EC50 (pEC50) in series [3] (setting [6]) and in series [5] (setting [7]) was 6.00 to 7.00 in each case. In addition, the CC50 at 6 days in series [4] is above 10 µM.
The compound `Cc1cn([C@@H](CC2CC2)C(=O)N(C)[C@@H](CC2CC2)C(=O)N2C[C@@]3(C[C@H]2C#N)Oc2cc(F)cc(F)c2NC3=O)nn1` [Compound 146] registered a CC50 in series [1] above 1 µM. The pIC50 in series [2] is above 7.70. For the same compound, the negative logarithm of the EC50 (pEC50) in series [3] (setting [6]) and in series [5] (setting [7]) was 6.00 to 7.00 throughout. The compound further yielded a CC50 at 6 days in series [4] above 10 µM.
Compound `Cc1ccc2c(n1)NC(=O)[C@]1(C[C@@H](C#N)N(C(=O)[C@H](CC3CC3)N(C)C(=O)[C@H](C)NC(=O)C(F)(F)F)C1)O2` [Compound 229, (S)—N—((S)-1-((2R,5'S)-5′-cyano-6-methyl-3-oxo-3,4-dihydrospiro[pyrido[3,2-b][1,4]oxazine-2,3′-pyrrolidin]-1′-yl)-3-cyclopropyl-1-oxopropan-2-yl)-N-methyl-2-(2,2,2-trifluoroacetamido)propanamide] yielded a CC50 in series [1] above 1 µM. The pIC50 in series [2] is above 7.70. For the same compound, the negative-log EC50 (pEC50) (as a rule, −log10 of the EC50, conventionally taken in molar units) is above 7.00 in series [3] (setting [6]) and 6.00 to 7.00 in series [5] (setting [7]). In series [4], this compound registered a CC50 at 6 days above 10 µM.
In series [1], `CN(C(=O)[C@H](CC1CC1)NC(=O)C(F)(F)F)[C@@H](CC(C)(C)F)C(=O)N1C[C@@]2(CC1C#N)Oc1cc(F)cc(F)c1NC2=O` (some centres unmarked) [Compound 54] had a CC50 above 1 µM. In series [2], the pIC50 was above 7.70. For the same compound, the pEC50 in series [3] (setting [6]) was above 7.00; in series [5] (setting [7]), 6.00 to 7.00. This compound also came in with a CC50 at 6 days in series [4] above 10 µM.
For `C[C@H](NC(=O)C(F)(F)F)C(=O)N(C)[C@@H](CC(C)(C)F)C(=O)N1C[C@@]2(C[C@H]1C#N)Oc1cc(F)cc(F)c1NC2=O` [Compound 61], the CC50 in series [1] is above 1 µM. The pIC50 in series [2] was above 7.70. For the same compound, the negative logarithm of the EC50 (pEC50) in series [3] (setting [6]) is 5.00 to 6.00; in series [5] (setting [7]), 6.00 to 7.00. Moreover, the CC50 at 6 days in series [4] is above 10 µM.
Take `CCN(C(=O)[C@H](C)NC(=O)C(F)(F)F)[C@@H](CC(C)C)C(=O)N1C[C@@]2(C[C@H]1C#N)Oc1cc(F)cc(F)c1NC2=O` [Compound 106]: the CC50 in series [1] was above 1 µM. Further, the pIC50 in series [2] is above 7.70. Besides, the negative logarithm of the EC50 (pEC50) in series [3] (setting [6]) and in series [5] (setting [7]) was 6.00 to 7.00 each time. This compound also returned a CC50 at 6 days in series [4] above 10 µM.
In series [1], `CN(C(=O)[C@H](CC1CC1)NC(=O)C(F)(F)F)[C@@H](CC1CC1)C(=O)N1C[C@@]2(C[C@H]1C#N)Oc1ccccc1C(C)(C)NC2=O` [Compound 228] had a CC50 above 1 µM. Also, the pIC50 in series [2] was 6.70 to 7.70. In addition, the pEC50 in series [3] (setting [6]) and in series [5] (setting [7]) was 6.00 to 7.00 each time. For the same compound, in series [4], the CC50 at 6 days was above 10 µM.
Compound `CC(C)C[C@@H](C(=O)N1C[C@@]2(C[C@H]1C#N)CC1(CC1)NC2=O)N(C)C(=O)[C@H](C)NC(=O)C(F)(F)F` [Compound 13, (S)—N—((S)-1-((5R,8S)-8-cyano-10-oxo-7,11-diazadispiro[2.1.4^5.2^3]undecan-7-yl)-4-methyl-1-oxopentan-2-yl)-N-methyl-2-(2,2,2-trifluoroacetamido)propanamide] came in with a CC50 in series [1] above 1 µM. Also, the negative logarithm of the IC50 (pIC50) in series [2] was above 7.70. Also, the pEC50 in series [3] (setting [6]) is 6.00 to 7.00; in series [5] (Severe acute respiratory syndrome coronavirus 2, read-out: A549-dual_ACE2_TMPRSS2 (EC50)), 6.00 to 7.00. The CC50 at 6 days in series [4] is above 10 µM.
In series [1], `CN(C(=O)[C@@H]1CCN(C(=O)C(F)(F)F)C1)[C@@H](CC1CC1)C(=O)N1C[C@@]2(C[C@H]1C#N)Oc1cc(F)cc(F)c1NC2=O` [Compound 128] came in with a CC50 above 1 µM. Moreover, the negative-log IC50 (pIC50) in series [2] was 5.70 to 6.70. The negative logarithm of the EC50 (pEC50) in series [3] is below 5.00; in series [5] (setting [7]), 6.00 to 7.00. The CC50 at 6 days in series [4] is above 10 µM.
`CN(C(=O)[C@@H](CC1CC1)n1cc(C2CC2)nn1)[C@@H](CC1CC1)C(=O)N1C[C@@]2(C[C@H]1C#N)Oc1cc(F)cc(F)c1NC2=O` [Compound 107, (R)—N—((S)-1-((2R,5'S)-5′-cyano-5,7-difluoro-3-oxo-3,4-dihydrospiro[benzo[b][1,4]oxazine-2,3′-pyrrolidin]-1′-yl)-3-cyclopropyl-1-oxopropan-2-yl)-3-cyclopropyl-2-(4-cyclopropyl-1H-1,2,3-triazol-1-yl)-N-methylpropanamide] displayed a CC50 in series [1] above 1 µM. Further, the pIC50 in series [2] is above 7.70. In addition, the pEC50 in series [3] (setting [6]) was 5.00 to 6.00; in series [5] (setting [7]) it was 6.00 to 7.00. The same compound displayed a CC50 at 6 days in series [4] above 10 µM.
Turning to `CN(C(=O)[C@H](CC1CC1)NC(=O)C(F)(F)F)[C@@H](CC1CC1)C(=O)N1C[C@@]2(C[C@H]1C#N)Oc1c(F)ccc(F)c1NC2=O` [Compound 57], the CC50 in series [1] is above 1 µM. Besides, in series [2], the pIC50 was above 7.70. Also, the negative logarithm of the EC50 (pEC50) in series [3] (setting [6]) and in series [5] (setting [7]) was above 7.00 throughout. For the same compound, the CC50 at 6 days in series [4] is above 10 µM.
Turning to `CN(C(=O)[C@H](CC1CC1)NC(=O)C(F)(F)F)[C@@H](CC1CC1)C(=O)N1C[C@@]2(C[C@H]1C#N)Oc1ccccc1C1(CC1)NC2=O` [Compound 113], in series [1], the CC50 was above 1 µM. For the same compound, in series [2], the pIC50 is 6.70 to 7.70. Moreover, the pEC50 in series [3] (setting [6]) is 6.00 to 7.00; in series [5] (Severe acute respiratory syndrome coronavirus 2, Table C, SARS-CoV-2 B.1.1.7 in A549-dual_ACE2_TMPRSS2 cells, cells given as a bound, read-out: A549-dual_ACE2_TMPRSS2 (EC50)), below 6.00. In series [4], this compound had a CC50 at 6 days above 10 µM.
Turning to `CN(C(=O)c1cc2c(F)cc(F)c(F)c2[nH]1)[C@@H](CC1CC1)C(=O)N1C[C@@]2(C[C@H]1C#N)Oc1cccnc1NC2=O` [Compound 96], in series [1], the CC50 was above 1 µM. For the same compound, the pIC50 in series [2] is above 7.70. Further, the pEC50 in series [3] (setting [6]) was 5.00 to 6.00; in series [5] (setting [7]), 6.00 to 7.00. For the same compound, in series [4], the CC50 at 6 days was above 10 µM.
`CN(C(=O)[C@H](CC1CC1)NC(=O)C(F)(F)F)[C@@H](CC1CC1)C(=O)N1C[C@@]2(C[C@H]1C#N)Oc1cc(C#N)cc(F)c1NC2=O` [Example 34, (S)-3-cyclopropyl-N—((S)-3-cyclopropyl-1-((2R,5'S)-5′,7-dicyano-5-fluoro-3-oxo-3,4-dihydrospiro[benzo[b][1,4]oxazine-2,3′-pyrrolidin]-1′-yl)-1-oxopropan-2-yl)-N-methyl-2-(2,2,2-trifluoroacetamido)propanamide] returned a CC50 in series [1] above 1 µM. The pIC50 in series [2] was above 7.70. Moreover, the negative-log EC50 (pEC50) in series [3] (setting [6]) and in series [5] (setting [7]) was 6.00 to 7.00 throughout. Further, the CC50 at 6 days in series [4] was above 10 µM.
As for `CN(C(=O)[C@@H](CC1CC1)NC(=O)C(F)(F)F)[C@@H](CC1CC1)C(=O)N1C[C@@]2(C[C@H]1C#N)Oc1cccnc1NC2=O` [Compound 172], the CC50 in series [1] is above 1 µM. In series [2], the negative-log IC50 (pIC50) was above 7.70. For the same compound, the negative logarithm of the EC50 (pEC50) in series [3] (setting [6]) and in series [5] (setting [7]) was 6.00 to 7.00 throughout. In series [4], this compound registered a CC50 at 6 days above 10 µM.
In series [1], `CN(C(=O)[C@H](CC1CC1)NC(=O)C(F)(F)F)[C@@H](CC1CC1)C(=O)N1C[C@@]2(C[C@H]1C#N)CC1(CC1)NC2=O` [Compound 60] showed a CC50 above 1 µM. In series [2], the pIC50 was above 7.70. The pEC50 in series [3] (setting [6]) and in series [5] (setting [7]) was above 7.00 each time. Also, the CC50 at 6 days in series [4] was above 10 µM.
As to `CC(C)C[C@@H](C(=O)N1C[C@@]2(C[C@H]1C#N)Oc1ccccc1NC2=O)N(C)C(=O)c1cc2c(F)cc(F)cc2[nH]1` [Example 2, N—((S)-1-((2R,5'S)-5′-cyano-3-oxo-3,4-dihydrospiro[benzo[b][1,4]oxazine-2,3′-pyrrolidin]-1′-yl)-4-methyl-1-oxopentan-2-yl)-4,6-difluoro-N-methyl-1H-indole-2-carboxamide], the CC50 in series [1] is above 1 µM. Besides, the pIC50 in series [2] is above 7.70. Further, the pEC50 in series [3] (setting [6]) and in series [5] (setting [7]) was 6.00 to 7.00 throughout. Also, the CC50 at 6 days in series [4] is above 10 µM.
